{"source": "patent US20110217337A1", "about": "“BIOACTIVE AGENT FOR BONE TISSUE ENGINEERING” (UNIVERSITY OF CONNECTICUT, priority 2010, published 2011)", "key": {"MC3T3E1 cells": {"test_system": "MC3T3E1 cells", "test": "Cell proliferation, PicoGreen dsDNA assay", "assay_type": "cell-based", "conditions": "100 μM in regular growth medium", "description": "FIG. 3. 6-Bnz-cAMP promotes cell growth in the earliest day of cell culture (Day 1) and maintains the cell proliferation rate at Day 7 and Day 14. Error bars represent SD.\nMC3T3E1 subtype 4 cell line was purchased from the […] (ATCC). The cells were grown to confluence, then seeded onto PLAGA discs at a density of 50,000 cells/scaffold. The cells were cultured on the discs in vitro in a 37° C. and 5% CO2 environment, using MEM alpha cell culture medium +10% Fetal Bovine Serum as a nutrient source. At specific time points, cultured cells were collected for various assays i.e., cell adhesion assays, cell proliferation assays, and cell differentiation studies.\nProliferation: Cell proliferation was tested using a PicoGreen dsDNA assay kit (Molecular Probes, Eugene, Oreg.) The procedure of the PicoGreen dsDNA assay was performed according to the manufacturer's instructions. Briefly, 5×10^4 cells ml^−1 were seeded in a well of a tissue culture plate. 100 μM of 6-Bnz-cAMP was added to the regular growth medium during cell seeding. The regular growth medium and 6-Bnz-cAMP (100 μM) were replaced every 3 to 4 days."}, "Runx2": {"test_system": "Runx2", "test": "Runx2 expression by SDS-PAGE and Western blotting", "assay_type": "cell-based", "conditions": "day 21", "description": "FIG. 4. […] It is thought that Runx2 serves as a gatekeeper to promote osteogenesis, thus it is one of the most important marker for osteogenesis. In the control panel, consistent with the reported data in literature, Runx2 was detected in the presence of osteogenic medium but remain undetectable level without the osteogenic medium. […] The blot of tubulin serves as loading control for each sample loading.\nDifferentiation: Osteogenic protein markers were analyzed SDS-PAGE and Western Blotting. Protein samples were resolved by SDS-PAGE on precast 12.5% […] gels (Bio-Rad, Hercules, Calif.) and transferred electrophoretically onto polyvinylidene difluoride membranes according to the manufacturer's instructions (Bio-Rad, Hercules, Calif.). Membranes were blocked with skim milk and then probed with respective antibodies. […]\nMC3T3E1 cells expressed classic markers for the osteoblastic phenotype in the presence of 6-Bnz-cAMP in the absence of osteogenic medium in samples collected at day 21. The level of Runx2, a bone-specific transcription factor which increases bone formation through the stimulation of bone-marker gene transcription in osteoblasts, was detected by immunoblotting (FIG. 4). In the control panel, Runx2 was detected in the presence of osteogenic medium but remain undetectable level without the osteogenic medium. […]"}, "Protein Kinase A (PKA)": {"test_system": "Protein Kinase A (PKA)", "conditions": "compared to non-specific cAMP analogue db-cAMP; cited from earlier work"}, "[1]": {"conditions": "water and a variety of pharmaceutically useful buffers and solvents; cited from earlier work"}, "[2]": {"conditions": "designed to resist enzymatic degradation in vivo; cited from earlier work"}}}
{"smiles": "O=C(Nc1ncnc2c1ncn2C1O[C@@H]2COP(=O)([O-])O[C@H]2[C@H]1O)c1ccccc1.[Na+]", "note": "(stereo partly shown) [6-Bnz-cAMP, N^6-Benzoyladenosine-3′,5′-cyclic monophosphate]", "values": [{"measurement": "proliferation rate", "setting": "MC3T3E1 cells; Days 7, 14 and 21", "result": "maintained"}, {"measurement": "cell growth", "setting": "MC3T3E1 cells; first day of culturing (Day 1)", "result": "promote cell growth"}, {"measurement": "expression of Runx2", "setting": "Runx2; 100 μM, absence of osteogenic medium", "result": "induces the expression of Runx2"}, {"measurement": "expression of Runx2", "setting": "Runx2; osteogenic medium together with 6-Bnz-cAMP, vs 6-Bnz-cAMP alone", "result": "further enhanced the expression of Runx2"}, {"measurement": "activation of the Protein Kinase A (PKA) pathway", "setting": "Protein Kinase A (PKA)", "result": "selectively activates"}, {"measurement": "solubility", "setting": "[1]", "result": "soluble in water"}, {"measurement": "half-life", "setting": "[2]", "result": "long half-life"}]}
